From patent US11001563B2, “SSAO inhibitor” (SHANDONG DANHONG PHARMACEUTICAL CO., LTD., priority 2017, dated 2021)

Assays:
VAP-1/SSAO [1] = molecular target: T1, VAP-1/SSAO (Homo sapiens (Human), UniProt Q16853); assay: VAP-1 cell activity assay (HUVEC or CHO cells transfected with VAP-1/pCDNA (3.1) plasmid, Amplex Red); type: cell-based; details: HUVEC or CHO cells transfected with VAP-1 plasmid; read-out: VAP-1/SSAO Cellular Inhibitory Activity IC50
Method: The inhibition of the sample on VAP-1 cell activity was measured by using an Amplex® Red Monoamine Oxidase kit (Invitrogen #A12214).
The cultured HUVEC or CHO cells were plated into a 6-well plate at a density of 0.8 M/well, placed in a 37° C., 5% CO2 incubator for incubation for 24 hours, and then the cells was transferred with a Lipo2000 reagent and a VAP-1/pCDNA (3.1) plasmid, and liquid was changed for the cells after 5 hours (Lipo2000 was toxic to the cells); after 24 hours, the cells were digested and plated into 384-well plates with a density of 25 μl, 10000 cells/well, and liquid was replaced with medium without FBS for the cells after 6-7 hours, and the cell plates were incubated overnight at 37° C. in a 5% CO2 incubator.
1) Dilution of the compound: serial dilution in 4× gradient was carried out with 100% DMSO, 10 points were diluted, the starting concentration of the to-be-tested compound was 0.5 mM (final concentration was 1 μM); 100 nl of compound solution was transferred to a 384-well cell assay plate with ECHO. Negative control wells: 100 nl of DMSO; background control wells: 100 nl DMSO+25 μL medium.
2) The reaction was carried out in the dark at room temperature for 30 min.
3) Preparation of Amplex Red reagent+HRP+benzylamine substrate working solution: Amplex Red reagent+HRP+benzylamine substrate working solution (200 μM Amplex Red reagent+1 U/mL HRP+1 mM benzylamine): 45 μl of 20 mM Amplex Red reagent mother solution, 22.5 μl of 200 U/ml horseradish peroxidase (HRP) mother solution and 45 ul of 100 mM benzylamine were tanken and added to 4.3875 ml of 1× reaction buffer.
4) After 30 min, 25 μl of the substrate working solution was added to a 384-well plate, and a final concentration was 100 μM Amplex Red reagent+0.5 U/mL HRP+0.5 mM benzylamine, respectively.
5) The reaction was carried out in the dark at room temperature for 60 minutes, and the fluorescence value was measured by Envision: the excitation wave was 535 nm, and the emission wave was 590 nm.
6) Inhibition rate calculation formula: % inhibition rate=(1−(test hole minus background−positive control well minus background)/(negative control well minus background-positive control well minus background))*100
7) The data were analyzed with Prism. The IC50 of the sample against VAP-1 cells was calculated.

[2] = system: CCl4-induced chronic liver fibrosis; assay: Oral CCl4-induced chronic liver fibrosis male C57BL/6 model; type: in vivo, C57BL/6 mice; details: oral daily for 28 days, in words
Method: The therapeutic effect of compounds on an oral CCl4-induced chronic liver fibrosis male C57BL/6 model was tested. Male C57BL/6 mice, 7-8 weeks old; Experimental method: Male C57BL/6 mice were orally administered from the day CCl4 was put for modeling, and administered daily. Continuous administration was conducted for 28 days. The animals were fasted for at least 6 hours on the next day after the last administration. Animal weight was measured during euthanasia and all animals were euthanized under the guidance of the KCl Animal Euthanasia SOP. Non-anticoagulant venous blood of mice was collected from the ocular venous plexus. The whole blood was allowed to stand at room temperature for 30 minutes, and centrifuged at 5000 rpm for 5 minutes, and the serum was separated and placed in a 1.5 ml EP tube and stored at -80° C. After the whole body of the animal was perfused with hypothermic saline, the liver was taken and subjected to tissue gross image acquisition. The left lobe of the liver was divided into 4 equal parts and put into 4 tissue cryotubes for liquid nitrogen freezing, and then transferred to -80 OC for storage. The rest of the liver tissue was fixed in 10% neutral formalin fixative. […] HE staining was subjected to double-blind score by two pathological readers, and the area of hepatic fibrosis was analyzed for sirius-red stained sections by digital pathology.

VAP-1/SSAO [3] = molecular target: T1, VAP-1/SSAO; assay: Human VAP-1 enzyme activity assay (Amplex Red Monoamine Oxidase kit); type: biochemical; details: 10 nM VAP-1 enzyme, 30 min preincubation, benzylamine substrate; read-out: Human Recombinant VAP-1/SSAO Enzyme Inhibitory Activity IC50
Method: Human VAP-1 enzyme activity assay:
The inhibition of the sample on VAP-enzyme activity was measured by using an Amplex® Red Monoamine Oxidase kit (Invitrogen #A12214). 100 nL of the gradiently-diluted to-be-tested compound (solvent DMSO) was added to a 384-well plate. 25 μL of 10 nM VAP-1 enzyme solution was added and incubated for 30 minutes at room temperature. A substrate mixture of VAP-1 enzyme (200 μM Amplex Red, 1 U/mL HRP, 1 mM Benzylamine) was added and incubated for 60 minutes at room temperature. After the incubation, the fluorescent signal was read with a microplate reader Envision (excitation light wavelength 530-560 nm, emission light wavelength 590 nm). The fluorescence signal value after the background signal was removed was analyzed by Prism software, and the IC50 of the sample against the VAP-1 enzyme was calculated.

[4] = Compound pharmacokinetic evaluation in CD-1 mice; type: in vivo, CD-1 mouse; details: male, mouse, plasma
Method: Experimental purpose: compound pharmacokinetics were tested in CD-1 mice
CD-1 mouse (Male, 25-35 g, 6-9 weeks old, Shanghai Slack);
Experimental procedure: the pharmacological characteristics of the compound after intravenous and oral administration were tested in rodents by standard protocol, candidate compounds in the experiment was prepared into clear solutions to be administered to the mice in a single intravenous injection and orally. The intravenous and oral solvents were a certain proportion of an aqueous hydroxypropyl β-cyclodextrin solution or a physiological saline solution. Whole blood samples within 24 hours were collected, and centrifuged at 3000 g for 15 minutes, the supernatant was separated to obtain plasma samples, 4 times volume of acetonitrile solution containing internal standard was added to precipitate protein, centrifuging was conducted to take the supernatant, equal volume of water was added and centrifuging was conducted to take the supernatant to be sampled. The LC-MS/MS analysis method was used to quantitatively analyze the plasma concentration, and the pharmacokinetic parameters such as peak concentration, peak time, clearance rate, half-life, area under the drug concentration-time curve, and bioavailability were calculated.

T1 sequence (Q16853 whole entry): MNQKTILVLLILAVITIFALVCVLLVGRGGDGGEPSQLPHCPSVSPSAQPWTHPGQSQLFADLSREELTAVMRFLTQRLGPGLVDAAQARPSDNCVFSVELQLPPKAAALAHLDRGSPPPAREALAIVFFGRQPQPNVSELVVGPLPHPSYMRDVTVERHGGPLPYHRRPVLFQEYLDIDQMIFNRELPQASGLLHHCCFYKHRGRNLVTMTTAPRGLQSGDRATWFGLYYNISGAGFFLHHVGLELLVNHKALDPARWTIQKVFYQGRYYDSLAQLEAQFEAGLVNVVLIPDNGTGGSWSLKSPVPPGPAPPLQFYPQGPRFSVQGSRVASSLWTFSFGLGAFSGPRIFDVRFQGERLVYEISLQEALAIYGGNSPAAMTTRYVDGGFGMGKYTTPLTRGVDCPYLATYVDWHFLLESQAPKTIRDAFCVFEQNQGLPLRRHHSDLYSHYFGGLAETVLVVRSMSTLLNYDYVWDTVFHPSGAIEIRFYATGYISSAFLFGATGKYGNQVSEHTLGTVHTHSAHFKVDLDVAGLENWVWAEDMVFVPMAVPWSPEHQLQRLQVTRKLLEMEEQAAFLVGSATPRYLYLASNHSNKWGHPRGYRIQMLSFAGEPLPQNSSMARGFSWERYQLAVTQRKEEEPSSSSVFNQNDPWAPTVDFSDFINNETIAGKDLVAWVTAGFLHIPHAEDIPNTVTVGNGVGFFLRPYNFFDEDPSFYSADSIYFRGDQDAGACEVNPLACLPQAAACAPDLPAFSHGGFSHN

- IC50 (VAP-1/SSAO [1]): 0.3 nM
- IC50 (VAP-1/SSAO [3]): 0.2 nM
- AUC ([4]; oral, read-out: Concentration Integral AUC): 6.49 µM·h
- Tmax ([4]; oral, read-out: Peak Time Tmax): 30 min
- bioavailability ([4]; po, read-out: Bioavailability F): 102%
- Cmax ([4]; single intravenous injection and oral, read-out: Peak Concentration Cmax): 3.53 µM
Compound: Cl.Cn1nc(-c2ccc(OC/C(=C/F)CN)cc2)nc1C(F)F [WX126]
- Effect on liver fibrosis (Sirius-Red staining) [2]: obvious improvement effect
- Effect on liver injury (HE staining score) [2]: obvious improvement effect
